Test results from article PMC8151276, “An Integrated Approach toward NanoBRET Tracers for Analysis of GPCR Ligand Engagement” (Molecules, 2021).

Experiments:
Assay type in all cases: binding
FZD2 = biological target: T1, FZD2 (Homo sapiens, UniProt Q14332); assay: NanoBRET screen HiBiT-FZD2 in HEK293; conditions: FZD2
T1 construct: purchased Promega (in-house HiBiT-GPCR construct library, NanoBRET)
Method: (§1) Each tracer candidate was screened across the entire library of HiBiT-GPCR constructs using NanoBRET as the detection modality. As depicted in Figure 4A, the specificity of interactions was evaluated through decrease in BRET due to competitive displacement of a bound tracer by excess parental compound. Each tracer was analyzed for binding to each HiBiT-GPCR fusion in the absence and in the presence of competing parental compound. Briefly, HEK293 cells were transfected with HiBiT-GPCR constructs diluted into promoterless DNA to reduce expression and maximize translocation to the cell surface. Each tracer candidate was then screened at concentrations of 1 μM and 0.1 μM across cells expressing these fusions. Cells were treated for 1.5 h with tracer either alone or in the presence of 20 μM competing parental compound (i.e., control). BRET was measured upon addition of purified LgBiT and subsequent complementation with HiBiT genetically fused to a GPCR. The specificity of interactions was assessed through a decrease in BRET signal due to competitive displacement of the bound tracer. To further gauge the robustness of these interactions, the fold response over the control (i.e., BRETtracer/BRETcontrol) was calculated. We chose a 1.5-fold response, which translates to ≥7-fold signal over noise as the minimal threshold required to score an interaction as positive. […]. Below we highlight the screening results obtained for our exemplary fluorescent tracers based on Clozapine, Amitriptyline and AZD1283.
(§2) HiBiT-GPCR DNA constructs were diluted in 10 mM Tris pH 8 to a final concentration of 0.01 μg/μL, arrayed in 96-well plates and stored at −20 °C. For transfection, HEK293 cells were suspended in Opti-MEM (without phenol red) supplemented with 2% fetal bovine serum (Seradigm) and 100 units/mL penicillin–streptomycin (Gibco) at a final concentration of 220,000 cells/mL and dispensed into white 96-well plates at 90 μL/well. Subsequent transfections and screens were carried using an Agilent Bravo Automated Liquid Handling Platform. First, the 96-well HiBiT DNA arrays were diluted 25-fold in Opti-MEM (without serum or phenol red) to a final concentration of 0.0004 μg/μL and 20 μL of the diluted DNAs were transferred into new 96-well plates. Next, promoterless carrier DNA (1 μg/μL) was diluted 25-fold (0.04 μg/μL) and then dispensed into the diluted arrays at 20 μL/well. Following brief mixing, Viafect transfection reagent (Promega) diluted 16-fold into Opti-MEM was dispensed into the plates at 40 μL/well. After mixing by pipetting, plates were incubated for 10 min on the pipetting station deck. The DNA-transfection reagent complexes were then added to plates containing cells. To facilitate the screen, 10 μL of DNA-transfection reagent complexes were added in duplicates to the top 4 and bottom 4 rows, resulting in two identical 48-well arrays per plate. Plates with transfected cells were incubated for 18–20 h at 37 °C/5% CO2. A screen of each tracer across the entire library using two different concentrations requires duplicate plates of transfected cells. Depending on the number of tracers being screened, transfections can be scaled up using the same ratios. The next day, for each tracer, four 20× screening solutions in tracer dilution buffer (Promega) were prepared: two duplicates at final concentration of 20 μM and two duplicates at a final concentration of 2 μM. A competing unmodified compound was added to one of each duplicate at a final concentration of 400 μM. The four resulting solutions were diluted 4-fold in Opti-MEM without serum or phenol red to generate 5× solutions (5 µM and 0.5 µM tracer +/− 100 μM competing compound). To screen the library, a BioTek MultiFlo FX liquid dispenser was used to dispense 22.5 µL of tracer solution to the top 4 rows and 22.5 µL tracer + competing compound solution to the 4 bottom rows. Plates were briefly mixed on an orbital shaker and incubated for 1.5 h at room temperature. […]

HTR5A = biological target: T2, HTR5A (Homo sapiens, UniProt P47898); assay: NanoBRET screen HiBiT-HTR5A in HEK293; conditions: HTR5A
T2 construct: purchased Promega (in-house HiBiT-GPCR construct library, NanoBRET)
Method: as §1, §2

P2RY6 = biological target: T3, P2RY6 (Homo sapiens, UniProt Q15077); assay: NanoBRET screen HiBiT-P2RY6 in HEK293; conditions: P2RY6
T3 construct: purchased Promega (in-house HiBiT-GPCR construct library, NanoBRET)
Method: as §1, §2

GALR1 = biological target: T4, GALR1 (Homo sapiens, UniProt P47211); assay: NanoBRET screen HiBiT-GALR1 in HEK293; conditions: GALR1
T4 construct: purchased Promega (in-house HiBiT-GPCR construct library, NanoBRET)
T4 sequence (P47211 1-349): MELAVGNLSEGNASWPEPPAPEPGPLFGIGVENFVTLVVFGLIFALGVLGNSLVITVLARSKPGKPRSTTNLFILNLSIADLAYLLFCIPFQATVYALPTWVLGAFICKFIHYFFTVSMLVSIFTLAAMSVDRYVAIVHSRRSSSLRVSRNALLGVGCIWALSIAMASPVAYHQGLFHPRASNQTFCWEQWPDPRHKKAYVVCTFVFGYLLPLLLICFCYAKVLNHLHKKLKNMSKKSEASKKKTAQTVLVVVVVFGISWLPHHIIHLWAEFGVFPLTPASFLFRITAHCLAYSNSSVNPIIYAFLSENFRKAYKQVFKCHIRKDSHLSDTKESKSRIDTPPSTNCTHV
Method: as §1, §2

OXTR = biological target: T5, OXTR (Homo sapiens, UniProt P30559); assay: NanoBRET screen HiBiT-OXTR in HEK293; conditions: OXTR
T5 construct: purchased Promega (in-house HiBiT-GPCR construct library, NanoBRET)
T5 sequence (P30559 1-389): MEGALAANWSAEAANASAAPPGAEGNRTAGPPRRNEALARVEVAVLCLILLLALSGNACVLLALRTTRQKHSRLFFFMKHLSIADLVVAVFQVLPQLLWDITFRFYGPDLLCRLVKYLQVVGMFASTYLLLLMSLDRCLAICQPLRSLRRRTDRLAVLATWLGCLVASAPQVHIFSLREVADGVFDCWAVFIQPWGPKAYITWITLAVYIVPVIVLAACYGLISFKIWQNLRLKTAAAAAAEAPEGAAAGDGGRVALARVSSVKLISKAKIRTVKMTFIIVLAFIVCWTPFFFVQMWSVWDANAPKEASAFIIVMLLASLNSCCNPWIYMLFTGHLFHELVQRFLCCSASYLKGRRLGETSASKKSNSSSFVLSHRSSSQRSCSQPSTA
Method: as §1, §2

GRM8 = biological target: T6, GRM8 (Homo sapiens, UniProt O00222); assay: NanoBRET screen HiBiT-GRM8 in HEK293; conditions: GRM8
T6 construct: purchased Promega (in-house HiBiT-GPCR construct library, NanoBRET)
Method: as §1, §2

T3 sequence (Q15077 whole entry): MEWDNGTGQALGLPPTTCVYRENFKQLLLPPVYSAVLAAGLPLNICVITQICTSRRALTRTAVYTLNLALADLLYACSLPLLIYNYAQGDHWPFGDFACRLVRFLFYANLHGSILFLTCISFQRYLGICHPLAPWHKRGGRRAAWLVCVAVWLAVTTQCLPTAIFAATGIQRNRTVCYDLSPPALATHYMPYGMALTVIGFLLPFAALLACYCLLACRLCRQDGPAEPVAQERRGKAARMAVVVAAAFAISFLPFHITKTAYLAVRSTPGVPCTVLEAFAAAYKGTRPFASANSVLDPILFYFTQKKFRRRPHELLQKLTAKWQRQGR
T1 sequence (Q14332 24-565): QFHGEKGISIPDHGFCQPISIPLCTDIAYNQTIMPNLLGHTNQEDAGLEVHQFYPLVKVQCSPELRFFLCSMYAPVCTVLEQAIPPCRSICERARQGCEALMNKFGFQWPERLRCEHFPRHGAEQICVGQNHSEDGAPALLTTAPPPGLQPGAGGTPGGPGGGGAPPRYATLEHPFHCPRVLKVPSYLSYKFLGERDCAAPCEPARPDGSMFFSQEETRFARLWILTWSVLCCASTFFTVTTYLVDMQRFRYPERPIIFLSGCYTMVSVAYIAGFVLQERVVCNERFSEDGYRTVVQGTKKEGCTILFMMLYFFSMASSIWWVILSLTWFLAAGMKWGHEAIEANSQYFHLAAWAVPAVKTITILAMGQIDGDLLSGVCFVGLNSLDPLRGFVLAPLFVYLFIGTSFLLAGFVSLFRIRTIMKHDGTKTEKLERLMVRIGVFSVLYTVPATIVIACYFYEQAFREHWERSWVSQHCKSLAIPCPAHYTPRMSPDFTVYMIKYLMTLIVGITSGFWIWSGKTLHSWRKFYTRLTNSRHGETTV
T6 sequence (O00222 34-908): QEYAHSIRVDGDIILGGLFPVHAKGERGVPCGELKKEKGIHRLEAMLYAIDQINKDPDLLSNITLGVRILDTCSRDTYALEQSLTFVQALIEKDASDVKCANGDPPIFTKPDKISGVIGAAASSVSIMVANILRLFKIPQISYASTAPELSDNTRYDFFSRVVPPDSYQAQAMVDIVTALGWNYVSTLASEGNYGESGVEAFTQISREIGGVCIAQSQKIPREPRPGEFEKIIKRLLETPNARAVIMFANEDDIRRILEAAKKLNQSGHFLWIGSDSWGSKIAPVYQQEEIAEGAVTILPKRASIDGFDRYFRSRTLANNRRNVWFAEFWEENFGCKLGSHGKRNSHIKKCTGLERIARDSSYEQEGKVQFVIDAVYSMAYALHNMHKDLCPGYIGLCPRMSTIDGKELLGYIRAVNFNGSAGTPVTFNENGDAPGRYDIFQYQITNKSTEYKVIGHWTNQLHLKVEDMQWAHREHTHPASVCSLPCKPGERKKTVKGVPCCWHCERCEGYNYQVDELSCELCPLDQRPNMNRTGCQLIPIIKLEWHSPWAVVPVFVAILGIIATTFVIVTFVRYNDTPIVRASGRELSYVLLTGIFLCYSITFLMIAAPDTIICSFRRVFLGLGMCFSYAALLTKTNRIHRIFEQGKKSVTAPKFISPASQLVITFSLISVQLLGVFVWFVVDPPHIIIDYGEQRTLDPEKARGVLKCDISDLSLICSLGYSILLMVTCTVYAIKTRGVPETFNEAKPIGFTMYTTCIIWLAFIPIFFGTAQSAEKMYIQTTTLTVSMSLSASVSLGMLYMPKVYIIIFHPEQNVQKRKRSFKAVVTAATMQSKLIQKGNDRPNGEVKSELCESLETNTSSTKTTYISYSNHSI
T2 sequence (P47898 whole entry): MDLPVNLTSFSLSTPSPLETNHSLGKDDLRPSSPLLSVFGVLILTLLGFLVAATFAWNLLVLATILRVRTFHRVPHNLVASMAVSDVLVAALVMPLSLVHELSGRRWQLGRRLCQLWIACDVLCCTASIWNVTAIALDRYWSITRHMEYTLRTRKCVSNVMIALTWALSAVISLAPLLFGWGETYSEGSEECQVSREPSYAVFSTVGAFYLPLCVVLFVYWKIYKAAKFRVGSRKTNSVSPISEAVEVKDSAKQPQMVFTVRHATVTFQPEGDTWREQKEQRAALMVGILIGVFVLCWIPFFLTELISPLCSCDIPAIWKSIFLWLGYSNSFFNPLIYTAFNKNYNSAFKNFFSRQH

SMILES | NanoBRET Fold Response (FZD2; tracer 0.1μM) | NanoBRET Fold Response (FZD2; tracer 1μM) | NanoBRET Fold Response (HTR5A; tracer 0.1μM) | NanoBRET Fold Response (HTR5A; tracer 1μM) | NanoBRET Fold Response (P2RY6; tracer 0.1μM) | NanoBRET Fold Response (P2RY6; tracer 1μM) | NanoBRET Fold Response (GALR1; tracer 0.1μM) | NanoBRET Fold Response (GALR1; tracer 1μM) | NanoBRET Fold Response (OXTR; tracer 0.1μM) | NanoBRET Fold Response (OXTR; tracer 1μM) | NanoBRET Fold Response (GRM8; tracer 0.1μM) | NanoBRET Fold Response (GRM8; tracer 1μM) | further results
CN1CCN(C2=Nc3cc(Cl)ccc3N(CC(=O)NCCOCCOCCOCCOCCNC(=O)CCc3ccc4n3[B-](F)(F)[N+]3=C(c5ccc[nH]5)C=CC3=C4)c3ccccc32)CC1 [Clozapine-c-2-NB590] | – | – | – | – | – | – | – | – | – | – | – | – | NanoBRET Fold Response (FZD2; 0.1μM tracer): 1.01; NanoBRET Fold Response (FZD2; 1μM tracer): 0.90; NanoBRET Fold Response (HTR5A; 0.1μM tracer): 1.02; NanoBRET Fold Response (HTR5A; 1μM tracer): 1.00; NanoBRET Fold Response (P2RY6; 0.1μM tracer): 0.97; NanoBRET Fold Response (P2RY6; 1μM tracer): 0.98; NanoBRET Fold Response (GALR1; 0.1μM tracer): 1.02; NanoBRET Fold Response (GALR1; 1μM tracer): 1.03; NanoBRET Fold Response (OXTR; 0.1μM tracer): 0.97; NanoBRET Fold Response (OXTR; 1μM tracer): 0.96; NanoBRET Fold Response (GRM8; 0.1μM tracer): 0.97; NanoBRET Fold Response (GRM8; 1μM tracer): 1.07
O=C(CCc1ccc2n1[B-](F)(F)[N+]1=C(c3ccc[nH]3)C=CC1=C2)NCc1ccc(C(=O)NCCOCCC(=O)N[C@@H]2CC[C@@]3(O)[C@H]4Cc5ccc(O)c6c5[C@@]3(CCN4CC3CC3)[C@H]2O6)cc1 [Naltrexone-3-NB590] | 0.84 | 0.88 | 0.69 | 0.98 | 0.84 | 0.81 | 0.99 | 0.89 | 0.99 | 0.91 | 1.07 | 0.93 | –
Cc1cc2c(s1)Nc1ccccc1N=C2N1CCN(CCCNC(=O)CCOCCOCCOCCOCCNC(=O)CCc2ccc3n2[B-](F)(F)[N+]2=C(c4ccc[nH]4)C=CC2=C3)CC1 [Olanzapine-a-2-NB590] | 0.98 | 0.90 | 1.06 | 1.03 | 1.31 | 0.95 | 1.03 | 1.09 | 1.00 | 0.96 | 0.97 | 1.04 | –
O=C(CCc1ccc2n1[B-](F)(F)[N+]1=C(c3ccc[nH]3)C=CC1=C2)NCc1ccc(C(=O)NCCOCCOCCNCC(O)COc2cccc3ccccc23)cc1 (stereo not drawn) [Propranolol-3-NB590] | – | – | – | – | – | – | – | – | – | – | – | – | NanoBRET Fold Response (FZD2; 0.1μM): 0.97; NanoBRET Fold Response (FZD2; 1μM): 1.01; NanoBRET Fold Response (HTR5A; 0.1μM): 1.10; NanoBRET Fold Response (HTR5A; 1μM): 1.03; NanoBRET Fold Response (P2RY6; 0.1μM): 1.07; NanoBRET Fold Response (P2RY6; 1μM): 0.96; NanoBRET Fold Response (GALR1; 0.1μM): 1.02; NanoBRET Fold Response (GALR1; 1μM): 0.96; NanoBRET Fold Response (OXTR; 0.1μM): 1.04; NanoBRET Fold Response (OXTR; 1μM): 0.98; NanoBRET Fold Response (GRM8; 0.1μM): 0.99; NanoBRET Fold Response (GRM8; 1μM): 1.00
O=C(CCc1ccc2n1[B-](F)(F)[N+]1=C(c3ccc[nH]3)C=CC1=C2)NCCOCCOCCNC(=O)OCCOCCN1CCN(C2=Nc3ccccc3Sc3ccccc32)CC1 [Quetiapine-a-2-NB590] | 0.96 | 0.89 | 0.96 | 0.99 | 1.30 | 0.96 | 1.02 | 0.76 | 1.10 | 0.82 | 0.98 | 1.00 | –
